Tests used:
Jurkat [1] = assay: confluency relative to DMSO, 18 h (ratio); higher = more viable
In short: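 Compound was applied at 1 nM–10 µM (log10 steps) for 18 h at 37 °C, 5% CO2 to Jurkat cells or to primary CD4+/CD8+ T cells that were naive or had been activated 48 h with CD3/CD28 Dynabeads. Suspension (100 µl) was then plated in 96-well plates with IncuCyte Cytotox Dye and alamarBlue and imaged hourly over 3 h (×10, five images per well). Confluency was calculated from the IncuCyte phase-contrast images using the Basic Analyzer and normalised to the mean of the control wells.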

Jurkat [2] = assay: metabolic activity relative to DMSO, 18 h (ratio); higher = more viable
In short: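 Jurkat cells and primary CD4+/CD8+ T cells, naive or activated for 48 h on CD3/CD28 Dynabeads, were incubated for 18 h with compound at 1 nM–10 µM. Fluorescence was read 3.5 h after alamarBlue addition (10% v/v final) at excitation 544 nm and emission 584 nm. Metabolic activity is normalised to the mean of vehicle controls.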

Jurkat [3] = assay: cytotoxicity relative to DMSO, 18 h (ratio); higher = less cell death (drugs called cytotoxic fall below 1)
In short: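 The assay used Jurkat cells or naive or CD3/CD28 Dynabead-activated (48 h) primary CD4+/CD8+ T cells, incubated with compound at 1 nM–10 µM in log10 steps for 18 h at 37 °C, 5% CO2. Cytotoxicity was assessed with IncuCyte Cytotox Dye and IncuCyte fluorescence imaging, corrected for confluency and scaled to mean control signals.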

Compound	confluency (Jurkat [1]; 1 nM)	confluency (Jurkat [1]; 10 nM)	confluency (Jurkat [1]; 100 nM)	confluency (Jurkat [1]; 1000 nM)	confluency (Jurkat [1]; 10000 nM)	metabolic activity (Jurkat [2]; 1 nM)	metabolic activity (Jurkat [2]; 10 nM)	metabolic activity (Jurkat [2]; 100 nM)	metabolic activity (Jurkat [2]; 1000 nM)	metabolic activity (Jurkat [2]; 10000 nM)	cytotoxicity (Jurkat [3]; 1 nM)	cytotoxicity (Jurkat [3]; 10 nM)	cytotoxicity (Jurkat [3]; 100 nM)	cytotoxicity (Jurkat [3]; 1000 nM)	cytotoxicity (Jurkat [3]; 10000 nM)
COc1ccc(-c2ccc3c(N4CCOCC4C)nc(N4CCOCC4C)nc3n2)cc1CO (stereo not given) [AZD-8055]	0.982	1	0.96	0.99	0.99	0.971	0.823	0.622	0.572	0.537	0.884	0.815	0.84	0.834	0.823
CC(Nc1cc(F)cc(F)c1)c1cc(C(=O)N(C)C)cc2c(=O)cc(N3CCOCC3)oc12 (stereo not given) [AZD-8186]	0.882	0.901	0.946	0.826	0.846	0.891	1.03	1.01	1.03	1.08	0.895	0.858	0.928	0.803	0.831
CCN1CCN(Cc2ccc(Nc3ncc(F)c(-c4cc(F)c5nc(C)n(C(C)C)c5c4)n3)nc2)CC1 [Abemaciclib]	0.952	1.02	0.98	0.991	0.818	1.22	1.24	1.2	1.15	0.888	1.04	1.13	1.06	1.09	0.718
Cc1c2oc3c(C)ccc(C(=O)NC4C(=O)NC(C(C)C)C(=O)N5CCCC5C(=O)N(C)CC(=O)N(C)C(C(C)C)C(=O)OC4C)c3nc-2c(C(=O)NC2C(=O)NC(C(C)C)C(=O)N3CCCC3C(=O)N(C)CC(=O)N(C)C(C(C)C)C(=O)OC2C)c(N)c1=O (stereo not given) [Actinomycin D]	1.11	1.09	0.972	0.907	0.923	0.959	0.746	0.2	0.152	0.192	1.08	1.02	0.661	0.517	0.477
Cc1nc(NC(=O)N2CCCC2C(N)=O)sc1-c1ccnc(C(C)(C)C(F)(F)F)c1 (stereo not given) [Alpelisib]	0.994	0.977	0.984	1.02	0.933	1.04	0.899	0.903	0.94	0.873	0.929	0.926	0.959	0.997	0.881
CN1CCC(c2c(O)cc(O)c3c(=O)cc(-c4ccccc4Cl)oc23)C(O)C1 (stereo not given) [Alvocidib]	0.999	0.999	0.974	0.927	0.939	1.04	0.946	0.712	0.086	0.108	1.03	0.92	0.89	0.505	0.526
COc1cc(OC)c2c(=O)[nH]c(-c3cc(C)c(OCCO)c(C)c3)nc2c1 [Apabetalone]	1.08	1.11	1.04	1.08	1.1	0.842	0.904	0.962	0.952	0.932	1.06	1.08	1.01	1.04	1.01
Cc1c(CN2CCN(C(=O)C(C)O)CC2)sc2c(N3CCOCC3)nc(-c3cnc(N)nc3)nc12 (stereo not given) [Apitolisib]	0.851	1.06	0.825	0.998	0.727	0.857	0.984	0.899	0.955	0.781	0.79	0.992	0.752	0.937	0.628
COc1ccc(-c2ccc3ncc4c(c3c2)n(-c2ccc(N3CCNCC3)c(C(F)(F)F)c2)c(=O)n4C)cn1 [BGT-226]	1.03	0.954	0.935	0.793	0.831	0.968	0.842	0.693	0.604	0.048	1.02	0.915	0.808	0.672	0.448
CCS(=O)(=O)N1CC(CC#N)(n2cc(-c3ncnc4[nH]ccc34)cn2)C1 [Baricitinib]	0.989	0.95	0.965	0.879	0.812	0.956	1.04	1.22	1.11	0.878	0.929	0.913	1.02	0.869	0.802
O=C(C=Cc1cccc(S(=O)(=O)Nc2ccccc2)c1)NO [Belinostat]	1.04	1.07	0.966	1.02	0.87	0.982	1.06	1.09	0.811	0.635	1.08	1.14	1.07	1.18	0.932
Cn1cnc2c(F)c(Nc3ccc(Br)cc3F)c(C(=O)NOCCO)cc21 [Binimetinib]	1	1.01	0.975	0.959	0.989	1.13	1.12	0.989	0.909	0.933	1.13	1.22	1	0.926	0.948
CC(C)CC(NC(=O)C(Cc1ccccc1)NC(=O)c1cnccn1)B(O)O (stereo not given) [Bortezomib]	0.99	0.969	0.721	0.934	0.951	1.2	1.13	0.556	0.181	0.149	1.02	0.944	0.569	0.531	0.539
COc1cc(N2CCC(N3CCN(C)CC3)CC2)ccc1Nc1ncc(Cl)c(Nc2ccccc2P(C)(C)=O)n1 [Brigatinib]	0.851	1.08	1.14	1.13	1.07	0.883	0.946	0.911	0.83	0.766	0.701	0.654	0.641	0.614	0.565
CCOC(=O)Nc1cc(-c2ccc(C)c(NS(C)(=O)=O)c2)nn2c(C)nnc12 [Bromosporine]	0.963	1	1.02	1.2	1.18	0.994	0.938	0.79	0.846	0.811	0.92	0.952	0.977	1.19	1.11

Source: the supplement of paper PMC11919725
